Results: US12534457B2, “Heteroaryl derivative compounds, and uses thereof” (Voronoi Inc., priority 2021, dated 2026)

Each compound was assayed on Ba/F3 cells expressing EGFR Del19/C797S (EGFR DC) (assay: Proliferation inhibitory activity, Ba/F3 cells expressing EGFR Del19/C797S (CellTiter-Glo)). Conditions: Mus musculus, BaF3, 72 hours of compound treatment.
Type: cell-based
Procedure: The following experiments were performed to evaluate the inhibitory activity of the compounds according to the present disclosure on Ba/F3 proliferation expressing EGFR C797S, L861Q, G719A, S768I, L718Q, and/or G724S mutations.
For Ba/F3 cells, RPMI-1640 containing 10% FBS and 5 ng/ml IL-3 (R&D Systems) was used. Transduced Ba/F3 cells were cultured after adding 1 μg/ml puromycin (Invitrogen) to the same medium.
At 24 hours before treatment with the compounds, 3000 to 5000 cells were aliquoted into each well of a white clear bottom 96 well plate (Corning). The compounds were diluted in dimethyl sulfoxide (3 times dilution, 12 concentrations in total), and injected in an amount of 1 μl so that the final concentration was 0.2 nM to 5 uM. For measurement of living cells, after 72 hours of compound treatment, the cells were stored at room temperature for 10 min using CellTiter-Glo luminescentcell-viability reagent (Promega), and then luminescence intensity was measured using a reader (SynergyNeo, Biotek). Each test was repeated three times. Result values were calculated as the cell growth rate (%) compared to the control. The graphs were created using GraphPad Prism version 8.3.0 program and the GI50 values were calculated.

Row | SMILES | GI50
1 | COc1cccc([C@H]2CCON2c2cc(Nc3ccc(N4CCC(N5CCN(C)CC5)CC4)cc3OC)ncn2)c1 [Example 41, (R)—N-(2-methoxy-4-(4-(4-methylpiperazin-1-yl)piperidin-1-yl)phenyl)-6-(3-(3-methoxyphenyl)isoxazolidin-2-yl)pyrimidin-4-amine] | 50 to 500 nM
2 | c1ccc([C@H]2CCON2c2cc(Nc3ccc(N4CCNCC4)cc3)ncn2)cc1 [Example 77, (R)-6-(3-phenylisoxazolidin-2-yl)-N-(4-(piperazin-1-yl)phenyl)pyrimidin-4-amine] | < 50 nM
3 | COc1cc(N2CCC(N3CCN(C)CC3)CC2)ccc1Nc1cc(N2OCC[C@@H]2c2cc(F)cc(F)c2)ncn1 [Example 21, (R)-6-(3-(3,5-difluorophenyl)isoxazolidin-2-yl)-N-(2-methoxy-4-(4-(4-methylpiperazin-1-yl)piperidin-1-yl)phenyl)pyrimidin-4-amine] | < 50 nM
4 | CN1CCN(C2CCN(c3ccc(Nc4cc(N5OCC[C@@H]5c5cc(F)cc(F)c5)ncn4)cc3S(C)(=O)=O)CC2)CC1 [Example 24, (R)-6-(3-(3,5-difluorophenyl)isoxazolidin-2-yl)-N-(4-(4-(4-methylpiperazin-1-yl)piperidin-1-yl)-3-(methylsulfonyl)phenyl)pyrimidin-4-amine] | 50 to 500 nM
5 | Cc1cc(N2CCC(N3CCN(C)CC3)CC2)ccc1Nc1cc(N2OCC[C@@H]2c2ccccc2)ncn1 [Example 52, (R)—N-(2-methyl-4-(4-(4-methylpiperazin-1-yl)piperidin-1-yl)phenyl)-6-(3-phenylisoxazolidin-2-yl)pyrimidin-4-amine] | < 50 nM
6 | Fc1ncc(N2C[C@@H]3C[C@H]2CO3)cc1Nc1cc(N2OCC[C@@H]2c2ccccc2)ncn1 [Example 74, N-(5-((1S,4S)-2-oxa-5-azabicyclo[2.2.1]heptan-5-yl)-2-fluoropyridin-3-yl)-6-((R)-3-phenylisoxazolidin-2-yl)pyrimidin-4-amine] | < 50 nM
7 | COc1cc(N2CCC(N3CCN(C4CC4)C(C)(C)C3)CC2)ccc1Nc1cc(N2OCC[C@@H]2c2ccccc2)ncn1 [Example 61, (R)—N-(4-(4-(4-cyclopropyl-3,3-dimethylpiperazin-1-yl)piperidin-1-yl)-2-methoxyphenyl)-6-(3-phenylisoxazolidin-2-yl)pyrimidin-4-amine] | < 50 nM
8 | CCN1C[C@H]2C[C@@H]1CN2C1CCN(c2ccc(Nc3cc(N4OCC[C@@H]4c4ccccc4)ncn3)c(OC)c2)CC1 [Example 116, N-(4-(4-((1R,4R)-5-ethyl-2,5-diazabicyclo[2.2.1]heptan-2-yl)piperidin-1-yl)-2-methoxyphenyl)-6-((R)-3-phenylisoxazolidin-2-yl)pyrimidin-4-amine] | < 50 nM
9 | COc1cc(N2CCC(N3CCN(C)CC3)CC2)ccc1Nc1cc(N2OCC[C@@H]2c2ccc(F)c(F)c2)ncn1 [Example 90, (R)-6-(3-(3,4-difluorophenyl)isoxazolidin-2-yl)-N-(2-methoxy-4-(4-(4-methylpiperazin-1-yl)piperidin-1-yl)phenyl)pyrimidin-4-amine] | < 50 nM
10 | CCC(=O)Nc1cc(Nc2cc(N3OCC[C@@H]3c3ccc(F)cc3F)ncn2)c(OC)cc1N1CCC(N2CCC(N3CCN(C)CC3)CC2)CC1 [Example 87, (R)—N-(5-((6-(3-(2,4-difluorophenyl)isoxazolidin-2-yl)pyrimidin-4-yl)amino)-4-methoxy-2-(4-(4-methylpiperazin-1-yl)-[1,4′-bipiperidin]-1′-yl)phenyl)propionamide] | < 50 nM
11 | Cc1cc(Nc2cc(N3OCC[C@@H]3c3ccccc3)ncn2)ccc1N1CCC(N2CCN(C)CC2)CC1 [Example 53, (R)—N-(3-methyl-4-(4-(4-methylpiperazin-1-yl)piperidin-1-yl)phenyl)-6-(3-phenylisoxazolidin-2-yl)pyrimidin-4-amine] | < 50 nM
12 | Cc1cc(Nc2cc(N3OCC[C@@H]3c3cc(F)ccc3F)ncn2)ccc1N1CCC(N2CCN(C)CC2)CC1 [Example 103, (R)-6-(3-(2,5-difluorophenyl)isoxazolidin-2-yl)-N-(3-methyl-4-(4-(4-methylpiperazin-1-yl)piperidin-1-yl)phenyl)pyrimidin-4-amine] | < 50 nM
13 | COc1cc(N2CCC(N3CCC(N4CCN(C5CC5)CC4)CC3)CC2)ccc1Nc1cc(N2OCC[C@@H]2c2ccccc2)ncn1 [Example 63, (R)—N-(4-(4-(4-cyclopropylpiperazin-1-yl)-[1,4′-bipiperidin]-1′-yl)-2-methoxyphenyl)-6-(3-phenylisoxazolidin-2-yl)pyrimidin-4-amine] | < 50 nM
14 | CN1CCN(c2ccc(Nc3cc(N4OCC[C@@H]4c4cc(F)cc(F)c4)ncn3)cc2)CC1 [Example 18, (R)-6-(3-(3,5-difluorophenyl)isoxazolidin-2-yl)-N-(4-(4-methylpiperazin-1-yl)phenyl)pyrimidin-4-amine] | 50 to 500 nM

The next lines start with the values.

Row | GI50 | SMILES
15 | < 50 nM | COc1cc(Nc2cc(N3OCC[C@@H]3c3ccccc3)ncn2)ccc1N1CCC(N2CCN(CCO)CC2)CC1 [Example 121, (R)-2-(4-(1-(2-methoxy-4-((6-(3-phenylisoxazolidin-2-yl)pyrimidin-4-yl)amino)phenyl)piperidin-4-yl)piperazin-1-yl)ethan-1-ol]
16 | < 50 nM | CC(C)(C)OC(=O)N1CCc2ccc(Nc3cc(N4OCC[C@@H]4c4ccccc4)ncn3)cc2C1 [Example 134, tert-butyl (R)-7-((6-(3-phenylisoxazolidin-2-yl)pyrimidin-4-yl)amino)-3,4-dihydroisoquinoline-2 (1H)-carboxylate]
17 | 50 to 500 nM | CN1CCN(c2ccc(Nc3cc(N4OCC5(CC5)[C@@H]4c4ccccc4)ncn3)cc2)CC1 [Example 231, (S)—N-(4-(4-methylpiperazin-1-yl)phenyl)-6-(7-phenyl-5-oxa-6-azaspiro[2.4]heptan-6-yl)pyrimidin-4-amine]
18 | < 50 nM | Cc1cc(Nc2cc(N3OCC[C@@H]3c3cccc(F)c3F)ncn2)ccc1N1CCC(N2CCN(C)CC2)CC1 [Example 126, (R)-6-(3-(2,3-difluorophenyl)isoxazolidin-2-yl)-N-(3-methyl-4-(4-(4-methylpiperazin-1-yl)piperidin-1-yl)phenyl)pyrimidin-4-amine]
19 | 50 to 500 nM | Fc1cccc([C@H]2CCON2c2cc(Nc3ccc([C@H]4CCON4)cc3)ncn2)c1F [Example 174, 6-((R)-3-(2,3-difluorophenyl)isoxazolidin-2-yl)-N-(4-((R)-isoxazolidin-3-yl)phenyl)pyrimidin-4-amine]
20 | < 50 nM | COc1cc(N2CCC(N3CCN(C)CC3)CC2)c(C(C)=O)cc1Nc1cc(N2OCC[C@@H]2c2cccc(F)c2F)ncn1 [Example 145, (R)-1-(5-((6-(3-(2,3-difluorophenyl)isoxazolidin-2-yl)pyrimidin-4-yl)amino)-4-methoxy-2-(4-(4-methylpiperazin-1-yl)piperidin-1-yl)phenyl)ethan-1-one]
21 | 50 to 500 nM | COc1cc(N2CCC(N3CCN(C)CC3)CC2)ccc1Nc1cc(N2OCC[C@@H]2c2ccc(F)c(Cl)c2F)ncn1 [Example 130, (R)-6-(3-(3-chloro-2,4-difluorophenyl)isoxazolidin-2-yl)-N-(2-methoxy-4-(4-(4-methylpiperazin-1-yl)piperidin-1-yl)phenyl)pyrimidin-4-amine]
22 | < 50 nM | COc1cc(N2CCC(N3CCN(C)CC3)CC2)c(C(C)C)cc1Nc1cc(N2OCC[C@@H]2c2cccc(F)c2F)ncn1 [Example 142, (R)-6-(3-(2,3-difluorophenyl)isoxazolidin-2-yl)-N-(5-isopropyl-2-methoxy-4-(4-(4-methylpiperazin-1-yl)piperidin-1-yl)phenyl)pyrimidin-4-amine]
23 | < 50 nM | CN1CCN(C2CCN(c3cc(OCC(F)(F)F)c(Nc4cc(N5OCC[C@@H]5c5ccccc5)ncn4)cc3-c3cnn(C)c3)CC2)CC1 [Example 164, (R)—N-(5-(1-methyl-1H-pyrazol-4-yl)-4-(4-(4-methylpiperazin-1-yl)piperidin-1-yl)-2-(2,2,2-trifluoroethoxy)phenyl)-6-(3-phenylisoxazolidin-2-yl)pyrimidin-4-amine]
24 | < 50 nM | COc1cc(Nc2cc(N3OCC[C@@H]3c3cccc(Cl)c3F)ncn2)ccc1N1CCC(N2CCN(C)CC2)CC1 [Example 125, (R)-6-(3-(3-chloro-2-fluorophenyl)isoxazolidin-2-yl)-N-(3-methoxy-4-(4-(4-methylpiperazin-1-yl)piperidin-1-yl)phenyl)pyrimidin-4-amine]
25 | < 50 nM | CN1CCN(c2c(-c3cnn(C)c3)cc(Nc3cc(N4OCC[C@@H]4c4ccccc4)ncn3)c3c2CCO3)CC1 [Example 162, (R)—N-(5-(1-methyl-1H-pyrazol-4-yl)-4-(4-methylpiperazin-1-yl)-2,3-dihydrobenzofuran-7-yl)-6-(3-phenylisoxazolidin-2-yl)pyrimidin-4-amine]
26 | 50 to 500 nM | Fc1cccc([C@H]2CCON2c2cc(Nc3ccc([C@@H]4CCON4)cc3)ncn2)c1F [Example 177, 6-((R)-3-(2,3-difluorophenyl)isoxazolidin-2-yl)-N-(4-((S)-isoxazolidin-3-yl)phenyl)pyrimidin-4-amine]
27 | < 50 nM | COc1cc(N2CCC(N3CCN(C)CC3)C(F)C2)ccc1Nc1cc(N2OCC[C@@H]2c2cccc(F)c2F)ncn1 (stereo partly drawn) [Example 140, 6-((R)-3-(2,3-difluorophenyl)isoxazolidin-2-yl)-N-(4-(3-fluoro-4-(4-methylpiperazin-1-yl)piperidin-1-yl)-2-methoxyphenyl)pyrimidin-4-amine]
